Reference: patent publication US7332615B2, “Hydrophilic analogs of 4,8-dihydrobenzodithiophene-4,8-diones as anticancer agents” (Industrial Technology Research Institute, priority 2004, dated 2008)
Where two headings read alike, the source gives them in different places.

Key:
[1] = Cytotoxicity Assays Method A (alamarBlue anti-proliferative assay), HUVEC; format: cell-based; details: human, HUVEC (human umbilical vein endothelial cells), 72-hour incubation, alamarBlue
Text: (§1) Cytotoxicity Assays Method A (HUVEC, MCF-7, HT-29, Hep 3B and NCl-H460) [S. A. Ahmed, R. M. Gogal Jr., and J. E. Walsh, Journal of Immunological Methods 170: 211-224, (1994): M. R. Boyd, Status of the NCl preclinical antitumor drug discovery screen. (Published by J. B. Lippincoft Company, Philadelphia, Pa. 19105, USA) Principles & Practices of Oncology Updates 3 # 10: 1-12, (1989); M. R. Boyd, et al. Data display and analysis strategies for the NCl disease-oriented in vitro antitumor drug screen. In: Cytotoxic anti-cancer drugs: models and concepts for drug discovery and development. Boston: Kluwer Academic, Pages; 11-34, (1992)]
(§2) The test compounds were dissolved in 100% DMSO and then diluted with sterile distilled water to obtain initial working solutions of 20000, 2000, 200, 20 and 2 μM in 80% DMSO. A 200 fold dilution was further made in culture media to generate final assay concentrations of 100, 10, 1, 0.1 and 0.01 μM in 0.4% DMSO.
(§3) Aliquots of 100 μl of cell suspension (about 1.5-3.0×10^3/well) were placed in 96-well microtiter plates in an atmosphere of 5% CO2 at 37° C. After 24 hours, 100 μl of growth medium and 1 μl of test solution or vehicle (80% DMSO) were added respectively per well in duplicate for an additional 72-hour incubation. Thus, the final concentration of DMSO was 0.4%. The test compounds, IIa-1, IIb-1 and VII-1 were evaluated at concentrations of 100, 10, 1, 0.1 and 0.01 μM. At the end of incubation, 20 μl of alamarBlue 90% reagent was added to each well for another 6-hour incubation before detection of cell viability by fluorescent intensity. Fluorescent intensity was measured using a Spectraflour Plus plate reader with excitation at 530 nm and emission at 590 nm.
(§4) The measured results was calculated by the following formula: PG(%)=100×(Mean Ftest−Mean Ftime0)/(Mean Fctrl−Mean Ftime0)] If(Mean Ftest−Mean Ftime0)<0, then PG(%)=100×(Mean Ftest−Mean Ftime0)/(Mean Ftime0−Mean Fblank) wherein PG represents percent growth;
(§5) A decrease of 50% or more (≧50%) in fluorescent intensity relative to the vehicle-treated control indicates significant cytostatic or cytotoxic activity, and semi-quantitative values for IC50, TGI and LC50 were then determined by nonlinear regression using GraphPad Prism (GraphPad Software, USA).
(§6) IC50 (50% Inhibition Concentration); Test compound concentration where the increase from times in the number or mass of treated cells was only 50% as much as the corresponding increase in the vehicle-control at the end of experiment.
(§7) TGI (Total Growth Inhibition): Test compound concentration where the number or mass of treated cells at the end of experiment was equal to that at time0.
(§8) LC50 (50% Lethal Concentration): Test compound concentration where the number or mass of treated cells at the end of experiment was half that at time.
(§9) The assays were used to detect changes in cell proliferation based on the ability of viable cells to cause alamarBlue to change from its oxidized to a reduced form. With the results obtained from the alamarBlue reaction, cell proliferation can be quantified and metabolic activity of viable cell can be examined.
(§10) The succinate derivatives of compounds IIa-1, IIb-1 and VII-1 were tested for possible effect on the proliferation of four human tumor cell lines ˜MCF-7 (breast), HT-29 (colon), Hep3B (liver), and NCl—H 460 (lung) as well as one human umbilical vein endothelial cell (HUVEC) at assay concentration from 0.01 to 100 μM, through serial 10-fold dilution.

[2] = system: HUVEC; test: as above; format: cell-based; details: for TGI (Total growth Inhibition): 72-hour incubation, alamarBlue; for IC50: Homo sapiens, 72 h, read-out: IC50 (50% Inhibition Concentration)
Text: as §1, §2, §3, §4, §5, §6, §7, §8, §9, §10

[3] = system: MCF-7; test: Cytotoxicity Assays Method A (alamarBlue anti-proliferative assay), MCF-7; format: cell-based; details: for IC50 / CC50: Homo sapiens; for IC50: MCF7, 72 h, read-out: IC50 (50% Inhibition Concentration); for CC50: MCF7, read-out: LC50 (50% Lethal Concentration); for CC50 / TGI (Total growth Inhibition): MCF-7, 72-hour incubation, alamarBlue; for cytotoxicity against MCF-7 (in words): MCF-7, summary of Table 1
Text: as §1, §2, §3, §4, §5, §6, §7, §8, §9, §10

[4] = system: HT-29; test: Cytotoxicity Assays Method A (alamarBlue anti-proliferative assay), HT-29; format: cell-based; details: for TGI (Total growth Inhibition) / LC50 (50% lethal concentration): HT-29, 72-hour incubation, alamarBlue; for IC50 / LC50 (50% lethal concentration): Homo sapiens; for IC50: HT-29, 72 h, read-out: IC50 (50% Inhibition Concentration)
Text: as §1, §2, §3, §4, §5, §6, §7, §8, §9, §10

[5] = system: Hep 3B; test: Cytotoxicity Assays Method A (alamarBlue anti-proliferative assay), Hep 3B; format: cell-based; details: for cytotoxicity against Hep3B (in words): summary of Table 1; for TGI (Total growth Inhibition) / CC50: Hep-3B, 72-hour incubation, alamarBlue; for IC50 / CC50: Homo sapiens; for cytotoxicity against Hep3B (in words) / IC50 / CC50: Hep3B; for IC50: 72 h, read-out: IC50 (50% Inhibition Concentration); for CC50: read-out: LC50 (50% Lethal Concentration)
Text: as §1, §2, §3, §4, §5, §6, §7, §8, §9, §10

[6] = system: NCI-H460; test: Cytotoxicity Assays Method A (alamarBlue anti-proliferative assay), NCI-H460; format: cell-based; details: for IC50 / CC50: Homo sapiens; for IC50: NCI-H460, 72 h, read-out: IC50 (50% Inhibition Concentration); for CC50 / TGI (Total growth Inhibition): NCI-H460, 72-hour incubation, alamarBlue; for CC50: read-out: LC50 (50% Lethal Concentration)
Text: as §1, §2, §3, §4, §5, §6, §7, §8, §9, §10

[7] = system: Human promyeloid leukemia HL-60 cells; test: Cytotoxicity Assays Method B (MTT proliferation assay), HL-60; format: cell-based; details: Homo sapiens, read-out: IC50 (concentration at which 50% of the cells are inhibited from growing)
Method: Cytotoxicity Assays Method B (HL-60) [H. M. Chen et al. Chin. Pharm. J. 53, 157-167 (2001)]
Human promyeloid leukemia HL-60 cells were obtained from the American Type
Culture Collection (Manassas, Va., USA) and the Culture Collection and Research Center(CCRC) (Tai wan, ROC). Human promyeloid leukemia HL-60 cells were cultured in suspension in RPMI-1640 medium (GIBCO, Grand Is land, USA), containing 10% fetal bovine se rum (GIBCO, Grand Is land, USA), 100 unit/mL penicillin, […] streptomycin and 1% L-glutamine at 37° C. in a humidified atmosphere of 5% CO2 in air. Cells were split every day to maintain the cell numbers between 2−5×10^5/mL. Cell numbers were assessed by the standard procedure of leukocyte counting using a hemocytometer and cell viability was checked by the ability of cells to exclude Trypan blue.
Cellular proliferation was determined by the MTT [3-(4,5-dimethylthiazol-2-yl)-2,5-diphenyltetrazolium bromide] as say. Briefly, […] of MTT (5 mg/mL) was added to each well of 96-well plates containing 1×10^5 cells after treatment with different concentrations of samples for 4 days. The reaction was stopped after 2 h by adding […] of 0.04 N HCl in isopropanol and the OD570 nm was determined by a minicolorimetric reader. Each concentration treatment was performed in triplicate.

[8] = system: epidermoid carcinoma of the nasopharynx (KB); test: Cytotoxicity Assays Method C, KB; format: cell-based; details: 72 h, read-out: IC50 KB
[9] = system: p-gp-expressing epidermoid carcinoma of the nasopharynx (KB-VIN); test: Cytotoxicity Assays Method C, KB-VIN; format: cell-based; details: for IC50: 50% reduction in cell number after 72 hr of incubation; for activity against the MDR cell line KB-VIN (in words): summary of Table 3
Text: Cytotoxicity Assays Method C (KB, KB-VIN, AS49, HCT-8, PC-3) [K. H. Lee et. al. Planta Med. 54, 308-312 (1998), Monk A et. al. J. Natl. Cancer Inst. 83, 757-766 (1991).] The cell lines included epidermoid caninoma of the nasopharynx (KB), p-gp-expressing epidermoid caninoma of the nasopharynx (KB-VIN), lung carcinoma (A-549), ileocecal carinoma (HCT-8) and prostate cancer (PC-3) cell lines.

[10] = system: lung carcinoma (A-549); test: Cytotoxicity Assays Method C, A-549; format: cell-based; details: Homo sapiens, A549, 72 h, read-out: IC50 A549
[11] = system: ileocecal carcinoma (HCT-8); test: Cytotoxicity Assays Method C, HCT-8; format: cell-based; details: Homo sapiens, HCT-8, 72 h, read-out: IC50 HCT-8
[12] = system: prostate cancer (PC-3); test: Cytotoxicity Assays Method C, PC-3; format: cell-based; details: for IC50: 72 h, read-out: IC50 PC-3; for activity against the androgen-insensitive prostate cancer cell line PC-3 (in words): PC-3, summary of Table 3

SMILES: O=C(O)CCC(=O)OCc1cc2c(s1)C(=O)c1sccc1C2=O [IIa-1, Mono-[1-(4,8-dioxo-4,8-dihydrobenzo[1,2-b:5,4-b′]dithiophen-2-yl)-methyl]succinate]
- LC50 (50% lethal concentration) at 72 h [1]: 34000 nM
- TGI (Total growth Inhibition) [2]: 19000 nM
- IC50 [2]: 10000 nM
- IC50 [3]: 3400 nM
- CC50 [3]: 14000 nM
- TGI (Total growth Inhibition) [3]: 6900 nM
- cytotoxicity against MCF-7 (in words) [3]: significant activity
- TGI (Total growth Inhibition) [4]: 22000 nM
- IC50 [4]: 11000 nM
- LC50 (50% lethal concentration) [4]: 45000 nM
- cytotoxicity against Hep3B (in words) [5]: significant activity
- TGI (Total growth Inhibition) [5]: 5100 nM
- IC50 [5]: 2800 nM
- CC50 [5]: 9200 nM
- IC50 [6]: 810 nM
- CC50 [6]: 3500 nM
- TGI (Total growth Inhibition) [6]: 1700 nM
- IC50 ([7]; HL-60, 96 h): 470 nM
- IC50 [8]: 2020 nM
- IC50 ([9]; Homo sapiens, KBVIN, 72 h): 4470 nM
- IC50 [10]: 4030 nM
- IC50 [11]: 4030 nM
- IC50 [12]: 1350 nM

SMILES: O=C(O)CCCC(=O)OCc1cc2c(s1)C(=O)c1sccc1C2=O [IIa-2, Mono-[1-(4,8-dioxo-4,8-dihydrobenzo[1,2-b:5,4-b′]dithiophen-2-yl)-methyl]pentanedioate]
- IC50 ([7]; 96 h, HL-60, MTT, treatment for 4 days): 700 nM
- IC50 [8]: 2220 nM
- IC50 ([9]; Homo sapiens, KBVIN, 72 h): 1390 nM
- IC50 [10]: 2080 nM
- IC50 [11]: 1660 nM
- IC50 [12]: 750 nM
- melting point: 220 °C (dec.)

SMILES: CC(OC(=O)CCC(=O)O)c1cc2c(s1)C(=O)c1sccc1C2=O (stereo not drawn) [IIb-1, Mono-[1-(4,8-dioxo-4,8-dihydrobenzo[1,2-b:5,4-b′]dithiophen-2-yl)-ethyl]succinate]
- LC50 (50% lethal concentration) at 72 h [1]: 89000 nM
- TGI (Total growth Inhibition) [2]: 31000 nM
- IC50 [2]: 11000 nM
- IC50 [3]: 820 nM
- CC50 [3]: 27000 nM
- TGI (Total growth Inhibition) [3]: 4700 nM
- cytotoxicity against MCF-7 (in words) [3]: significant activity
- TGI (Total growth Inhibition) [4]: 2000 nM
- IC50 [4]: 4300 nM
- LC50 (50% lethal concentration) [4]: 89000 nM
- cytotoxicity against Hep3B (in words) [5]: significant activity
- TGI (Total growth Inhibition) [5]: 1800 nM
- IC50 [5]: 1100 nM
- CC50 [5]: 2900 nM
- IC50 [6]: 640 nM
- CC50 [6]: 2100 nM
- TGI (Total growth Inhibition) [6]: 1200 nM
- IC50 ([7]; HL-60, 96 h): 260 nM
- IC50 [8]: 470 nM
- IC50 ([9]; Homo sapiens, KBVIN, 72 h): 250 nM
- activity against the MDR cell line KB-VIN (in words) [9]: potent activity
- IC50 [10]: 580 nM
- IC50 [11]: 910 nM
- IC50 [12]: 220 nM
- activity against the androgen-insensitive prostate cancer cell line PC-3 (in words) [12]: potent activity

SMILES: CC(OC(=O)CCC(=O)O)c1cc2c(s1)C(=O)c1ccsc1C2=O (stereo not drawn) [VII-1, Mono-[1-(4,8-dioxo-4,8-dihydroxybenzo[1,2-b;4,5-b′]dithiophen-2-yl)-ethyl]succinate]
- LC50 (50% lethal concentration) at 72 h [1]: > 100000 nM
- TGI (Total growth Inhibition) [2]: 57000 nM
- IC50 [2]: 11000 nM
- IC50 [3]: 960 nM
- CC50 [3]: 31000 nM
- TGI (Total growth Inhibition) [3]: 5500 nM
- cytotoxicity against MCF-7 (in words) [3]: significant cytotoxicity
- TGI (Total growth Inhibition) [4]: 38000 nM
- activity against HT-29 (in words) ([4]; HT-29, summary of Table 1): moderate activity
- IC50 [4]: 4500 nM
- LC50 (50% lethal concentration) [4]: > 100000 nM
- cytotoxicity against Hep3B (in words) [5]: significant cytotoxicity
- TGI (Total growth Inhibition) [5]: 1900 nM
- IC50 [5]: 1000 nM
- CC50 [5]: 3400 nM
- IC50 [6]: 410 nM
- CC50 [6]: 3000 nM
- TGI (Total growth Inhibition) [6]: 1100 nM
- IC50 ([7]; HL-60, 96 h): 260 nM
- IC50 [8]: 190 nM
- IC50 [9]: 220 nM
- activity against the MDR cell line KB-VIN (in words) [9]: potent activity
- IC50 [10]: 470 nM
- IC50 [11]: 420 nM
- IC50 [12]: 160 nM
- activity against the androgen-insensitive prostate cancer cell line PC-3 (in words) [12]: potent activity
